Data on four compounds can be found in article PMC4660513 (Pharmacognosy Research, 2015).

Series [1] concerns UGT (4-MU glucuronidation). The experiment in a line: 4-MU glucuronidation inhibition assay in rat liver microsomes. It is filed as in vitro ADME. Conditions: rat, rat liver microsomes, pH 7.4, probe 4-methylumbelliferone (4-MU), 100 μM. (In general: Liver microsomes are a subcellular fraction often used to study metabolism.)
In another series the target is T1, recombinant human UGT1A1 (Homo sapiens, UniProt P22309).
T1 sequence (P22309 26-533): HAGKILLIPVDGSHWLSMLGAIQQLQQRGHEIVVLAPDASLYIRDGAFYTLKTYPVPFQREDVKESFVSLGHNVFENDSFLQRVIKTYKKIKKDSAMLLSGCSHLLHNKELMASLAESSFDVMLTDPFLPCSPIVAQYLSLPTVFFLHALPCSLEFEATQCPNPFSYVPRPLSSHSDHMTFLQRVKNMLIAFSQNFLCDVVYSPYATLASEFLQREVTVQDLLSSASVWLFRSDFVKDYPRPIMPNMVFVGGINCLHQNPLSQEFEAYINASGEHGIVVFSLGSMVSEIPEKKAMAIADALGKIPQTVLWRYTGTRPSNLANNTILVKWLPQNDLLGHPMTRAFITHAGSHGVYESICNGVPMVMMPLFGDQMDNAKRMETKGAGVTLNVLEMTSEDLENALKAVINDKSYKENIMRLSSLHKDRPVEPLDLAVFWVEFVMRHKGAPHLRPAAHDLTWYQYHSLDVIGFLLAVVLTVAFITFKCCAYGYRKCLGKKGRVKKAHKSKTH
The experiment in a line: 4-MU glucuronidation inhibition assay with recombinant human UGT1A1 isoform. It is filed as in vitro ADME.

The next series has as its target T2, recombinant human UGT2B7 (Homo sapiens, UniProt P16662).
T2 sequence (P16662 24-529): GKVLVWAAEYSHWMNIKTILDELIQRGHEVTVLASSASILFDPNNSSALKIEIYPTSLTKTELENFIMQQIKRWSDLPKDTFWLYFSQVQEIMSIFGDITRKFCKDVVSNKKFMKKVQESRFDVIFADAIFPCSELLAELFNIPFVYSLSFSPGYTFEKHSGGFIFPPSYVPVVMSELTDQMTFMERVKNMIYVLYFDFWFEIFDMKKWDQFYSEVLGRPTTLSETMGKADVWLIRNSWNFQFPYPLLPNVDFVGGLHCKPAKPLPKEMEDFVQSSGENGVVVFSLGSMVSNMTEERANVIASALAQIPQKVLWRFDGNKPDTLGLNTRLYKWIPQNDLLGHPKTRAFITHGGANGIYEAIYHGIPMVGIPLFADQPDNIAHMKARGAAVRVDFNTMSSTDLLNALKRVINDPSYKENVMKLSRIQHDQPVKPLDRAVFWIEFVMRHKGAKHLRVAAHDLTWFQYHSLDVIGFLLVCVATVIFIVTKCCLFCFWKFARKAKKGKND
The series is described as follows: 4-MU glucuronidation inhibition assay with recombinant human UGT2B7 isoform. It is filed as in vitro ADME.

The test system of series [2] is human UGT2B7. Conditions: read-out: estimated IC50, human UGT2B7; previous study; cited from earlier work.
The next series relates to human UGT2B15. Conditions: read-out: estimated IC50, human UGT2B15; previous study; cited from earlier work.
For series [3] the following is noted: cited from earlier work.
Another series has as its system human UGT1A1. To be noted: previous report; cited from earlier work.
For a further series, the system named is UGT (s). Conditions: cited from earlier work.
In another series the test system is rat liver microsomes. The experiment in a line: 4-MU glucuronidation inhibition assay in rat liver microsomes. It is filed as in vitro ADME.
The next series concerns human liver microsomes. The series is described as follows: 4-MU glucuronidation inhibition assay in human liver microsomes. It is filed as in vitro ADME. To be noted: comparison of IC50 values.
A further series relates to UGT1A1. To be noted: except at highly extraordinary concentrations; cited from earlier work.
Series [4] relates to human UGT2B7. Conditions: read-out: Km for buprenorphine glucuronidation by human UGT2B7 isoform; cited from earlier work.
Series [5] has as its system human UGT2B7. Conditions: read-out: Km for 4-MU glucuronidation by human UGT2B7 isoform; cited from earlier work.

“And” between values parts separate entries of the source, which are not always exact repeats. Equal entries are not always repeated. Structures can show the parent of a compound that is named as a salt. Where two headings read alike, the source gives them in different places. Some results are limits rather than exact numbers.

Usually IC50 stands for the concentration needed to halve the response being measured. In the case of `CNC1(c2ccccc2Cl)CCCCC1=O` (centres unmarked) [Ketamine, Ketamine hydrochloride], in [1], the IC50 at 30 min amounted to 6.21 ± 1.51 µM. The IC50 at recombinant human UGT1A1 was over 1000 µM; on recombinant human UGT2B7 it was 27.3 ± 1.18 µM; in the series with human UGT2B7 [2], 55 µM; in the series on human UGT2B15, 95 µM. Moreover, the “ketamine concentration after low-dose administration” value in [3] (0.125–0.250 mg/kg intravenous) is > 0.42 μM and > 100 μg/l. Further, the “mean plasma concentration during steady-state anesthesia” value in series [3] (induction 2 mg/kg, maintenance approx. 40 μg/kg/min) is 9.3 µM. In addition, the “inhibitory effect on 4-MU glucuronidation in human UGT1A1 isoform” value in the series with human UGT1A1 is “weak inhibitory effect”. Moreover, in the series on UGT (s), the “manner of inhibition of morphine-3-glucuronide formation” value is on record as “non-competitive”.
On to `O=C(O)Cc1ccccc1Nc1c(Cl)cccc1Cl` [Diclofenac, diclofenac], for which, in series [1], the half-maximal inhibitory concentration (IC50) at 30 min is 21.1 ± 1.32 µM. Further, the IC50 at recombinant human UGT1A1 amounted to 2.34 ± 1.28 µM.
The Km is the concentration of substrate that gives half-maximal velocity. Take buprenorphine hydrochloride: the “potency relative to diclofenac” value in the series with rat liver microsomes (rat liver microsomes, comparison of IC50 values) is given as “about three orders of magnitude less potent than diclofenac”. Besides, the IC50 in the series on rat liver microsomes (read-out: IC50 on 4-MUG formation, rat liver microsomes) came to 73.2 ± 1.63 µM. Further, the “potency relative to diclofenac (more potent)” value with human liver microsomes is “about 13 orders of magnitude”. Besides, the “inhibitory effect on bilirubin glucuronidation catalyzed by UGT1A1” value in the series on UGT1A1 is on record as “no significant inhibitory effect”. The Km with human UGT2B7 [4] was 20.9 µM.
With `Cc1cc(=O)oc2cc(O)ccc12` [4-MU, 4-methylumbelliferone], the Km in the series on human UGT2B7 [5] is 335 µM.
